Data on eleven compounds can be found in patent EP0326331B1, “Substituted quinolines and cinnolines” (Dow AgroSciences LLC, priority 1988, dated 1989).

Holding throughout (format): in vivo
Test [1] has as its system Erysiphe graminis tritici (powdery mildew). Kind of test: Test 1 greenhouse foliar spray screen, powdery mildew on wheat. Particulars: Blumeria graminis, foliar, Test 1, foliar spray on wheat; disease control rating at 400 ppm / 100 ppm; read-out: POWD MDEW.
For test [2], the system named is Pyricularia oryzae (rice blast). The experiment in a line: whole plant or invertebrate. The note with it: Pyricularia oryzae, foliar, read-out: RICE BLAST, Test 1, foliar spray on rice; disease control rating at 400 ppm / 100 ppm.
For test [3], the system named is Puccinia recondita tritici (leaf rust). Kind of test: Test 1 greenhouse foliar spray screen, leaf rust on wheat. Particulars: Puccinia recondita, foliar, Test 1, foliar spray on wheat; disease control rating at 400 ppm / 100 ppm.
For test [4], the system named is Botrytis cinerea (gray mold). The experiment in a line: Test 1 greenhouse foliar spray screen, gray mold on grape berries. Particulars: Botrytis cinerea, foliar; Test 1, spray on grape berries; disease control rating at 400 ppm / 100 ppm.
Test [5] concerns Pseudoperonospora cubensis (downy mildew). Kind of test: Test 1 greenhouse foliar spray screen, downy mildew on squash. The note with it: Pseudoperonospora cubensis, foliar, Test 1, foliar spray on squash; disease control rating at 400 ppm / 100 ppm; read-out: DOWN MDEW.
Test [6] deals with southern armyworm (Spodopetra eridania Cramer). Kind of test: Mite/insect screen, SAW. The note with it: Spodoptera eridania, foliar, percent mortality, foliar spray on squash, read-out: SAW RESULTS %; for mortality at 200 ppm: rate 200 ppm; for mortality at 400 ppm: rate 400 ppm. The method, boiled down:
(§1)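 Read-out: percent mortality after standard exposure periods. Test solutions were water dilutions of compound dissolved in acetone/alcohol (50:50) with emulsifier blends; leaves were sprayed to runoff on both surfaces and air-dried for one hour before exposure.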

For test [7], the system named is Twospotted spider mites (Tetranychus urticae Koch). The experiment in a line: Mite/insect screen, SM. The note with it: Tetranychus urticae, foliar, percent mortality, foliar spray on squash, read-out: SM RESULTS %; for mortality at 200 ppm: rate 200 ppm; for mortality at 400 ppm: rate 400 ppm. The method, boiled down:
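Foliar spray to runoff (10 psi), 1 h drying; aqueous dilutions from acetone/alcohol emulsifier stock. Mortality (%) after standard exposure.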

Test [8] has as its system melon aphids (Aphis gossypii Glover). Kind of test: Mite/insect screen, MA. The note with it: Aphis gossypii, foliar, percent mortality, foliar spray on squash, read-out: MA RESULTS %; for mortality at 200 ppm: rate 200 ppm; for mortality at 400 ppm: rate 400 ppm. A digest of the protocol: as §1
For test [9], the system named is corn rootworm. Kind of test: Mite/insect screen, CRW. Particulars: percent mortality, read-out: CRW RESULTS %; for mortality at 12 ppm: CRW rate 12.00 ppm; for mortality at 24 ppm: CRW rate 24.00 ppm. The method, boiled down:
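Read-out: % mortality after standard exposure. Formulation: acetone/alcohol (50:50) with emulsifiers at 23 g and 13 g per liter, water-diluted to final test levels.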

For the compound `CC(C)(C)c1ccc(CCCNc2ccnc3c(F)cccc23)cc1` [Example 271, N-[3-[4-(t-butyl)phenyl]propyl]-8-fluoro-4-quinolinamine], the pest or weed control at 400 ppm lay in the range of 0 to 19% in test [1]; 90 to 100% in test [2]; 20 to 89% in test [3]; 0 to 19% in [4]; 90 to 100% in test [5]. In addition, the mortality at 200 ppm in test [6], in [7] and in [8] was 0% in each case. In addition, the mortality at 400 ppm in test [6], in test [7] and in test [8] was 0% in each case. In addition, the mortality at 12 ppm in [9] worked out at 0%. In [9], the mortality at 24 ppm was found to be 0%.

For `Fc1cccc2c(OCCCCOc3ccccc3)ccnc12` [Example 272, 8-fluoro-4-(4-phenoxybutoxy)quinoline], the pest or weed control at 400 ppm is 0 to 19% in test [1]; 20 to 89% in test [2]; 0 to 19% in test [3]; 0 to 19% in test [4]; 20 to 89% in [5]. Also, the mortality at 200 ppm in test [6], in [7] and in [8] was 0% throughout. In addition, the mortality at 400 ppm came out at 0% in [6], 20% in [7] and 0% in test [8]. The mortality at 12 ppm in test [9] was 0%. Also, the mortality at 24 ppm in [9] was determined as 0%.

Turning to `CC(=O)Oc1ccc(CCN(C(C)=O)c2ccnc3c(F)cccc23)cc1` [Example 273, N-[2-(4-acetoxyphenyl)ethyl]-N-(8-fluoro-4-quinolinyl)acetamide], the pest or weed control at 400 ppm in [1] was in the range of 20 to 89%; in test [2], 90 to 100%; in [3] it was 20 to 89%; in test [4] it was 0 to 19%; in test [5] it was 20 to 89%. In addition, the mortality at 400 ppm in test [6], in test [7] and in [8] was 0% each time. In addition, the mortality at 24 ppm in test [9] amounted to 0%.

Turning to `CC(CCOc1ccnc2c(F)cccc12)CC(C)(C)C` (stereo not drawn) [Example 274, 8-fluoro-4-(3,5,5-trimethylhexyloxy)quinoline], the pest or weed control at 400 ppm lay in the range of 90 to 100% in test [1]; 90 to 100% in test [2]; 90 to 100% in test [3]; 0 to 19% in test [4]; 20 to 89% in test [5]. The mortality at 200 ppm amounted to 0% in test [6], 100% in test [7] and 100% in [8]. Besides, the mortality at 400 ppm came out at 0% in [6], 0% in test [7] and 100% in test [8]. Besides, the mortality at 12 ppm in [9] came out at 0%. Also, the mortality at 24 ppm in [9] was 0%.

On to `Fc1ccc(CCOc2ccnc3c(F)cccc23)c(F)c1` [Example 275, 8-fluoro-4-[2-(2,4-difluorophenyl)ethoxy]quinoline], for which the pest or weed control at 400 ppm in test [1] was in the range of 90 to 100%; in [2], 90 to 100%; in [3], 90 to 100%; in test [4], 0 to 19%; in test [5] it was 90 to 100%. The values for the mortality at 200 ppm in [6], in test [7] and in test [8] were 0%, 0% and 90%, respectively. Moreover, the results for the mortality at 400 ppm in test [6], in test [7] and in test [8] were 0%, 60% and 100%, respectively. Moreover, the mortality at 12 ppm in test [9] was 0%. In addition, the mortality at 24 ppm in test [9] is 0%.

For `Fc1ccc(CCOc2ccnc3cc(Cl)ccc23)c(F)c1` [Example 276, 7-chloro-4-[2-(2,4-difluorophenyl)ethoxy]quinoline], the pest or weed control at 400 ppm in test [1] was 90 to 100%; in test [2], 0 to 19%; in test [3], 20 to 89%; in test [4], 0 to 19%; in test [5], 0 to 19%. Further, the mortality at 200 ppm in test [6], in test [7] and in [8] was 0% in each case. Moreover, the mortality at 400 ppm is 0% in test [6], 60% in test [7] and 80% in test [8]. Besides, the mortality at 12 ppm in test [9] worked out at 0%. Moreover, in [9], the mortality at 24 ppm was found to be 0%.

Consider `CCOc1ccc(CCOc2ccnc3cc(Cl)cc(Cl)c23)cc1` [Example 277, 5,7-dichloro-4-[2-(4-ethoxyphenyl)ethoxy]quinoline], for which the pest or weed control at 400 ppm in [1] lay within 90 to 100%; in test [2], 0 to 19%; in test [3], 0 to 19%; in test [4] it was 0 to 19%; in [5] it was 0 to 19%. Further, the mortality at 400 ppm in test [6], in test [7] and in test [8] was 0% each time. In addition, in [9], the mortality at 24 ppm was found to be 0%.

Regarding `CCCCOc1ccc(CCOc2ccnc3c(F)cccc23)cc1` [Example 278, 4-[2-(4-butoxyphenyl)ethoxy]-8-fluoroquinoline], the pest or weed control at 400 ppm in [1] was in the range of 90 to 100%; in [2], 90 to 100%; in test [3], 90 to 100%; in test [4] it was 0 to 19%; in [5], 90 to 100%. Further, the mortality at 200 ppm in [6] is 0%; in test [7] it was 60%; in test [8], 90%. Moreover, the mortality at 400 ppm in test [6] was 100%; in [7], 0%; in test [8], 0%. Further, the mortality at 12 ppm in test [9] was 0%. Besides, in test [9], the mortality at 24 ppm was 0%.

Turning to `CCOc1ccc2nc(C)cc(OCCCOCc3ccccc3)c2c1` [Example 279, 6-ethoxy-2-methyl-4-[3-(phenylmethoxy)propoxy]quinoline], the pest or weed control at 400 ppm is 0 to 19% in test [1]; 90 to 100% in [2]; 90 to 100% in test [3]; 0 to 19% in test [4]; 90 to 100% in test [5]. The mortality at 200 ppm in [6], in test [7] and in [8] was 0% each time. Also, the mortality at 400 ppm in [6] amounted to 0%; in test [7] it was 0%; in test [8] it was 80%. Moreover, the mortality at 12 ppm in test [9] worked out at 0%. Also, in [9], the mortality at 24 ppm turned out to be 0%.

On to `Clc1cccc2c(NCCc3cccc(Oc4ccccc4)c3)ccnc12` [Example 280, 8-chloro-N-[2-(3-phenoxyphenyl)ethyl]-4-quinolinamine], for which the pest or weed control at 400 ppm in test [1] lay in the range of 90 to 100%; in test [2], 90 to 100%; in test [3] it was 90 to 100%; in [4] it was 0 to 19%; in test [5], 90 to 100%. Moreover, the mortality at 200 ppm in test [6] was 60%; in test [7] it was 0%; in test [8], 0%. In addition, the mortality at 400 ppm in test [6], in [7] and in [8] was 0% throughout. Further, the mortality at 12 ppm in [9] is 0%. The mortality at 24 ppm in test [9] was 0%.

Regarding `Clc1cccc2c(NCCCCc3ccccc3)ccnc12` [Example 281, 8-chloro-N-(4-phenylbutyl)-4-quinolinamine], the pest or weed control at 400 ppm is 20 to 89% in test [1]; 90 to 100% in test [2]; 20 to 89% in test [3]; 0 to 19% in test [4]; 90 to 100% in test [5]. In addition, the mortality at 200 ppm in test [6], in [7] and in [8] was 0% throughout. In addition, the mortality at 400 ppm in test [6], in test [7] and in [8] was 0% each time. Moreover, the mortality at 12 ppm in test [9] was 0%. For the same compound, in [9], the mortality at 24 ppm amounted to 0%.
